Biological target: T1, recombinant His-tag Y220C p53 DBD protein (Homo sapiens, UniProt P04637, Y220C)
T1 construct: recombinant His-tag Y220C p53 DBD protein (amino acids #˜94-312)
Test: In vitro DNA binding activity assay (TR-FRET): binding of His-tag Y220C p53 DBD to biotin-labeled consensus DNA
Format: biochemical
Conditions: for SC150 (μM): concentration to increase DNA binding by […], incubated at either 27° C. or 29° C. for 60 min; for Y220C SC150 (μM): SC150 = concentration to increase DNA binding by […], His-tag Y220C p53 DBD, biotin-labeled consensus DNA

Structure (SMILES)	SC150 (μM)	Y220C SC150 (μM)
N#Cc1ccc(C(=O)NCc2ccc(-c3cc4c(NC5CCS(=O)(=O)CC5)cccc4n3CC(F)(F)F)cc2)cc1 [Compound 16A, 4-cyano-N-[(4-{4-[(1,1-dioxo-1λ^6-thian-4-yl)amino]-1-(2,2,2-trifluoroethyl)-1H-indol-2-yl}phenyl)methyl]benzamide]	++ (++ = 2 μM ≤ SC150 < 5 μM)	–
O=S1(=O)CCC(Nc2cccc3c2cc(-c2cnn(Cc4cccnc4)c2)n3CC(F)(F)F)CC1 [Compound 16B, 4-[(2-{1-[(pyridin-3-yl)methyl]-1H-pyrazol-4-yl}-1-(2,2,2-trifluoroethyl)-1H-indol-4-yl)amino]-1λ^6-thiane-1,1-dione]	–	**** (**** = 1 μM ≤ SC150 < 10 μM)
O=C(NCc1ccc(-c2cc3c(NC4CCS(=O)(=O)CC4)cccc3n2CC(F)(F)F)cc1)c1ccc(Cl)cc1 [Compound 17A, 4-chloro-N-[(4-{4-[(1,1-dioxo-1λ^6-thian-4-yl)amino]-1-(2,2,2-trifluoroethyl)-1H-indol-2-yl}phenyl)methyl]benzamide]	++ (++ = 2 μM ≤ SC150 < 5 μM)	–
CC(C)(C#N)c1ccc(NC(=O)NCc2ccc(-c3cc4c(NC5CCS(=O)(=O)CC5)cccc4n3CC(F)(F)F)cc2)cn1 [Compound 18A, 3-[6-(1-cyano-1-methylethyl)pyridin-3-yl]-1-[(4-{4-[(1,1-dioxo-1λ^6-thian-4-yl)amino]-1-(2,2,2-trifluoroethyl)-1H-indol-2-yl}phenyl)methyl]urea]	+ (+ = 0 μM ≤ SC150 < 2 μM)	–
O=C(NCc1ccc(-c2cc3c(NC4CCS(=O)(=O)CC4)cccc3n2CC(F)(F)F)cc1)Nc1ccccc1 [Compound 19A, 3-[(4-{4-[(1,1-dioxo-1λ^6-thian-4-yl)amino]-1-(2,2,2-trifluoroethyl)-1H-indol-2-yl}phenyl)methyl]-1-phenylurea]	+ (+ = 0 μM ≤ SC150 < 2 μM)	–
O=C(O)c1cccc(-c2cc3c(NC4CCS(=O)(=O)CC4)cccc3n2CC(F)(F)F)c1 [Compound 20A, 3-{4-[(1,1-dioxo-1λ^6-thian-4-yl)amino]-1-(2,2,2-trifluoroethyl)-1H-indol-2-yl}benzoic acid]	++++ (++++ = 10 μM ≤ SC150 < 35 μM)	–
CN1CCC(Nc2cccc3c2cc(-c2cc(C(N)c4ccccc4)[nH]n2)n3CC(F)(F)F)CC1 (stereo not drawn) [Compound 20B, 2-{5-[amino(phenyl)methyl]-1H-pyrazol-3-yl}-N-(1-methylpiperidin-4-yl)-1-(2,2,2-trifluoroethyl)-1H-indol-4-amine]	–	**** (**** = 1 μM ≤ SC150 < 10 μM)

The remaining lines, values ahead:

SC150 (μM)	Y220C SC150 (μM)	Structure (SMILES)
++ (++ = 2 μM ≤ SC150 < 5 μM)	–	CN(C)c1cccc(-c2cc3c(NC4CCS(=O)(=O)CC4)cccc3n2CC(F)(F)F)c1 [Compound 21A, 4-({2-[3-(dimethylamino)phenyl]-1-(2,2,2-trifluoroethyl)-1H-indol-4-yl}amino)-1λ^6-thiane-1,1-dione]
–	**** (**** = 1 μM ≤ SC150 < 10 μM)	CN1CCC(Nc2cccc3c2cc(-c2cc(N)[nH]n2)n3CC(F)(F)F)CC1 [Compound 21B, 2-(5-amino-1H-pyrazol-3-yl)-N-(1-methylpiperidin-4-yl)-1-(2,2,2-trifluoroethyl)-1H-indol-4-amine]
++ (++ = 2 μM ≤ SC150 < 5 μM)	–	CNC(=O)c1cccc(-c2cc3c(NC4CCS(=O)(=O)CC4)cccc3n2CC(F)(F)F)c1 [Compound 22A, 3-{4-[(1,1-dioxo-1λ^6-thian-4-yl)amino]-1-(2,2,2-trifluoroethyl)-1H-indol-2-yl}-N-methylbenzamide]
–	** (** = 0.1 μM ≤ SC150 < 0.5 μM)	CN1CCC(Nc2cccc3c2cc(-c2cc(CNc4ccc(S(C)(=O)=O)cc4)[nH]n2)n3CC(F)(F)F)CC1 [Compound 22B, 2-(5-{[(4-methanesulfonylphenyl)amino]methyl}-1H-pyrazol-3-yl)-N-(1-methylpiperidin-4-yl)-1-(2,2,2-trifluoroethyl)-1H-indol-4-amine]
–	**** (**** = 1 μM ≤ SC150 < 10 μM)	CNc1cc(-c2cc3c(NC4CCN(C)CC4)cccc3n2CC(F)(F)F)n[nH]1 [Compound 23B, 2-[5-(methylamino)-1H-pyrazol-3-yl]-N-(1-methylpiperidin-4-yl)-1-(2,2,2-trifluoroethyl)-1H-indol-4-amine]
